Source: patent US12290535B2, “Langerin+ cell targeting” (Max-Planck-Gesellschaft zur Förderung der Wissenschaften …, priority 2018, dated 2025)

Assays:
[1] = tested on: DC-SIGN CRD; assay: 19F R2-filtered NMR reporter displacement assay transferred to DC-SIGN; type: binding; conditions: Ki Langerin compared to Ki DC-SIGN
Procedure: (§1) Langerin and DC-SIGN carbohydrate recognition domain. Expression and purification were conducted as previously published. Briefly, the monomeric ^15N-labeled Langerin and DC-SIGN carbohydrate recognition domains (CRDs) were expressed insolubly in E. coli BL21* (DE3) (Invitrogen). Following enzymatic cell lysis, inclusion bodies were harvested and subsequently solubilized. The sample was centrifuged and the Langerin and DC-SIGN CRDs were refolded overnight via rapid dilution. Next, the sample was dialyzed overnight, centrifuged and purified via StrepTactin affinity chromatography (Iba). After an additional dialysis step overnight, the sample was centrifuged and the buffer was exchanged to 25 mM HEPES with 150 mM NaCl at pH 7.0 using 7 kDa size-exclusion desalting columns (Thermo Scientific) for ^19F R2-filtered and ^15N HSQC NMR experiments. The concentration of Langerin and DC-SIGN CRDs was determined via UV spectroscopy (A280, 0.1%=3.19 and A280, 0.1%=2.98). Purity and monodispersity of Langerin and DC-SIGN CRD samples were analyzed via SDS PAGE and DLS.
(§2) General remarks. ^19F R2-filtered NMR experiments were conducted on a PremiumCompact 600 MHz spectrometer (Agilent). […] Apparent relaxation rates R2,obs for the reporter ligand were determined using the CPMG pulse sequence as previously published (Wamhoff, E. C. et al. (19)F Nmr-Guided Design of Glycomimetic Langerin Ligands. ACS Chem Biol, 11, 2407-13 (2016): Carr, H. Y. & Purcell, E. M. Effects of Diffusion on Free Precession in Nuclear Magnetic Resonance Experiments. Phys Rev, 94, 630-638 (1954); Meiboom, S. & Gill, D. Modified Spin-Echo Method for Measuring Nuclear Relaxation Times. Rev Sci Instrum 29, 688-691 (1958)).
(§3) Assay development for DC-SIGN. […] Briefly, the KD value and the relaxation rate in bound state R2,b were determined at five concentrations [L]T of reporter ligand 24 in three independent titration experiments. […]
(§4) Ki determination. Ki values were determined as previously published for Langerin (Wamhoff, E. C. et al. (19)F NMR-Guided Design of Glycomimetic Langerin Ligands. ACS Chem Biol 11, 2407-13 (2016)). […]

[2] = molecular target: T1, DC-SIGN CRD (Homo sapiens, UniProt Q9NNX6); assay: as above; type: binding; conditions: 19F R2-filtered NMR, DC-SIGN CRD 50 μM, pH 7.0, 25° C.
T1 construct: residues 205 to 404; TEV site (C); StreptagII (C); made in house; host or cells: E. coli BL21* (DE3)
T1 sequence (Q9NNX6 250-404): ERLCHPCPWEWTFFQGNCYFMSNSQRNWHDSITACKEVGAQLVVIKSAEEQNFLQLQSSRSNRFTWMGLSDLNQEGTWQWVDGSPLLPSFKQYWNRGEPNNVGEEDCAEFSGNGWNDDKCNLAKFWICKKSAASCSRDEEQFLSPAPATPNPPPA
Procedure: as §1, §2, §3, §4

specificity for DC-SIGN over Langerin [1]: 3.7 fold
Ki [2]: 2700 ± 300 µM
SMILES: CC(=O)NCCO[C@H]1O[C@H](CO)[C@@H](O)[C@H](O)[C@@H]1O [Man analog 21]
